Assay results reported in patent EP4613273A1, “TREATMENT OF BONE LOSS” (priority 2024, dated 2025).
Counter-ions that a name gives are not always drawn. Like-named read-outs stand apart in the source and are kept apart here.

Experiments:
Format in all cases: in vivo
[1] = Plasma pharmacokinetic of MIV-701 after single and repeated oral administration of MIV-701 besylate salt in healthy beagle dogs; conditions: for Cmax at 312 h / Tmax at 312 h / AUC(0-inf) at 312 h / AUC(0-t) at 312 h / half-life at 312 h / Cmax at 0 h / Tmax at 0 h / AUC(0-inf) / AUC(0-t) / half-life: dog; for AUC(0-inf) at 312 h / AUC(0-inf): read-out: AUC(0-infini) (converted); for AUC(0-t) at 312 h / AUC(0-t): read-out: AUC(0-tfinal) (converted); for half-life at 312 h / half-life: read-out: T1/2 elimination (converted)
Method: (§1) Compound Ib besylate salt (referred to as MIV-701 besylate salt) was administered once daily for 14 days to 3 healthy beagle dogs at three different doses: 1 mg/kg, 10 mg/kg and 100 mg/kg.
(§2) The doses were consecutively administered for 14 days with a >5-day washout period between two dose levels.
(§3) Each treatment period can be resumed as follows: • J0 (T+24h): first Compound Ib besylate salt administration, withdrawal of blood samples for pharmacokinetic and plasma CTX-1 assessment (pre-dose and 0.5h, 1h, 2h, 4h, 8h and 24h after drug administration), pre-dose blood samples for hematology and clinical biochemistry (baseline values for safety assessment). • J1 to J12: pre-dose blood samples • J13: last Compound Ib besylate salt administration, withdrawal of plasma samples for pharmacokinetic and plasma CTX-1 assessment (pre-dose and 0.5h, 1h, 2h, 4h, 8h and 24h after drug administration), pre-dose sampling for hematology and clinical biochemistry (baseline values for safety assessment). • J15-J≥19: washout period.
After centrifugation of blood samples plasma aliquots were stored at -20°C. After thawing on ice, 30 µL of plasma were transferred into 1.5 ml microtube containing 270 µL acetonitrile. Microtubes were then vigorously stirred and then centrifuged (12000 rpm, 10 min, 4°C) and the supernatant was transferred in Matrix tube for LC-MS/MS analysis. Calibration curve (9 points, 3 to 30 000 nM) was obtained by spiking plasma samples from naive dogs with appropriate quantities of Compound Ib.
Equipment: LC-MS/MS Acquity I Class-Wevo TQD (Waters®): - Acquity I Class ∘ Column: Waters® Acquity BEH C8, 50*2.1mm, 1.7 µm (40°C) ∘ Mobile phase: • ▪ A: Ammonium Formate 5mM, pH=3.8 • ▪ B: Ammonimuformate 5 mM in CH3CN 5% aqueous, pH=3.8 ∘ Injection volume: 1 µL ∘ Speed: 600 µL/min ∘ Gradient: […]
- Xevo TQD ∘ Source temperature: 150°C ∘ Desolvatation temperature: 600°C ∘ Cone gaz speed: 50L/h ∘ Desolvatation gaz speed: 1200L/h - Analytes MS characteristics
Terminal elimination half-life (t1/2) was calculated according to the following formula: T1/2 elimination = ln(2)/kel [formula] kel= slope of ln(C)=f(temps) calculated on the last points of the curves (elimination phase)/ MIV-701 exposure (Area Under the Curve; AUCt) was calculated according to trapezoidal method according to the following formula: AUCt−>inf = [C]t /kel [formula]

CTX-1 = assay: Plasma CTX-1 (bone resorption marker) in healthy beagle dogs
Method: as §1, §2, §3

[2] = Safety of repeated oral administration in healthy cats
Method: MIV-701 besylate salt was administered once daily for 14 days to 4 healthy cats at three increasing doses: 2 mg/kg, 10 mg/kg and 50 mg/kg.
The three doses were consecutively administered for 14 days with a >5-day washout period between two dose levels.
Each treatment period can be resumed as follows: • J0 (T+24h): first administration, withdrawal of blood samples for pharmacokinetic and plasma CTX-1 assessment (pre-dose and 0.5h, 1h, 2h, 4h, 8h and 24h after first drug administration), pre-dose blood samples for hematology and clinical biochemistry (baseline values for safety assessment). • J5 ([…]) and J8: pre-dose blood samples. • J13: last administration, withdrawal of plasma samples for pharmacokinetic and plasma CTX-1 assessment (pre-dose and 0.5h, 1h, 2h, 4h, 8h and 24h after last drug administration), pre-dose sampling for hematology and clinical biochemistry (baseline values for safety assessment). • J15 to J≥19: washout period.

[3] = plasma MIV-701, oral 1 mg/kg once daily, Day 13 (repeated)
[4] = plasma MIV-701, oral 1 mg/kg, Day 0 (single)
[5] = plasma MIV-701, oral 10 mg/kg once daily, Day 13 (repeated)
[6] = plasma MIV-701, oral 10 mg/kg, Day 0 (single)
[7] = plasma MIV-701, oral 100 mg/kg once daily, Day 13 (repeated)
[8] = plasma MIV-701, oral 100 mg/kg, Day 0 (single)

CC(C)C[C@H](NC(=O)c1ccc(-c2csc(N3CCN(C)CC3)n2)cc1)C(=O)N1C[C@H](F)[C@H]2OCC(O)(O)[C@H]21 [MIV-701 besylate salt, N-[(S)-1-((3aS,6S,6aS)-6-Fluoro-S-oxo-hexahydro-furo[3,2-b]pyrrole-4-carbony)-3-methyl-butyl]-4-[2-(4-methyl-piperazin-1-yl)-thiazol-4-yl]-benzamide benzenesulphonate]
plasma accumulation of MIV-701 (Cmax, AUCs D13 vs D0) ([1]; 14-day repeated oral administration, three doses): did not show plasma accumulation | Cmax at 312 h [1, 3]: 6.6 nM | Tmax at 312 h [1, 3]: 2 h | AUC(0-inf) at 312 h [1, 3]: 0.083 µM·h | AUC(0-t) at 312 h [1, 3]: 0.036 µM·h | half-life at 312 h [1, 3]: 8.6 h | Cmax at 0 h [1, 4]: 20 nM | Tmax at 0 h [1, 4]: 0.5 h | AUC(0-inf) [1, 4]: 0.0488 µM·h | AUC(0-t) [1, 4]: 0.0429 µM·h | half-life [1, 4]: 2.9 h | Cmax at 312 h [1, 5]: 130 nM | Tmax at 312 h [1, 5]: 4 h | AUC(0-inf) at 312 h [1, 5]: 1.91 µM·h | AUC(0-t) at 312 h [1, 5]: 1.84 µM·h | half-life at 312 h [1, 5]: 4.9 h | Cmax at 0 h [1, 6]: 139 nM | Tmax at 0 h [1, 6]: 1 h | AUC(0-inf) [1, 6]: 1.38 µM·h | AUC(0-t) [1, 6]: 1.35 µM·h | half-life [1, 6]: 4.1 h | Cmax at 312 h [1, 7]: 1620 nM | Tmax at 312 h [1, 7]: 1 h | AUC(0-inf) at 312 h [1, 7]: 21.4 µM·h | AUC(0-t) at 312 h [1, 7]: 20.7 µM·h | half-life at 312 h [1, 7]: 4.8 h | Cmax at 0 h [1, 8]: 1280 nM | Tmax at 0 h [1, 8]: 8 h | AUC(0-inf) [1, 8]: 19.9 µM·h | AUC(0-t) [1, 8]: 19.4 µM·h | half-life [1, 8]: 4 h | Kel (2-8h) [1, 3]: -0.080 h⁻¹ | Kel (2-8h) [1, 4]: -0.236 h⁻¹ | Kel (4-24h) [1, 5]: -0.142 h⁻¹ | Kel (8-24h) [1, 6]: -0.167 h⁻¹ | Kel (4-24h) [1, 7]: -0.144 h⁻¹ | Kel (8-24h) [1, 8]: -0.174 h⁻¹ | inhibition of pre-dose plasma CTX-1 vs baseline (CTX-1; 10 mg/kg once a day, D1 to end of 14 days): 40% | time of CTX-1 inhibition peak after administration (CTX-1; D0, three doses tested): 8 h | pre-dose plasma CTX-1 during repeated administration (CTX-1; once a day oral, D1 to end of 14 days): dose-dependent inhibition | CTX-1 plasma concentration 24 hours after administration (CTX-1; single dose 10mg/kg and 100 mg/kg): did not go back to pre-dose concentration | effect on plasma CTX-1 (CTX-1; single oral administration (D0) at 1 mg, 10 mg and 100 mg): dose-dependent effect | adverse or irreversible effect ([2]; oral 2 mg/kg/day and 10 mg/kg/day during 14 days): did not induce any adverse or irreversible effect | adverse signs ([2]; oral 50 mg/kg/day during 4 days, led to treatment withdrawal, reversible): induced some digestive and behavioral degradations
